Patent US20100267561A1, “HERBICIDAL PYRIDAZINONE DERIVATIVES” (priority 2007, published 2010)
Read-outs that look alike come from different tables or passages of the source.

Tests used:
Experiment in all cases: Test B pre-/postemergence plant response
Assay type in all cases: in vivo
[1] = test system: large crabgrass (Digitaria sanguinalis); conditions: for pest or weed control at 31 g/ha: 31 g ai/ha; for pest or weed control at 62 g/ha: 62 g ai/ha, 100 complete control
Outline: (§1)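 Preemergence and postemergence (plants 2-18 cm, 1- to 4-leaf stage) applications used test chemicals in a non-phytotoxic solvent with surfactant. Plants were held in a greenhouse 13 to 15 days, then rated visually against controls on a 0-100 scale (0 no effect, 100 complete control).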

[2] = test system: johnsongrass (Sorghum halepense); conditions: for pest or weed control at 31 g/ha / pest or weed control at 62 g/ha: Sorghum halepense, read-out: Plant response rating, Johnsongrass; for pest or weed control at 31 g/ha: 31 g ai/ha; for pest or weed control at 62 g/ha: 62 g ai/ha, 100 complete control
Outline: as §1

[3] = test system: common (oilseed) sunflower (Helianthus annuus); conditions: Preemergence
Outline: as §1

[4] = test system: wheat (Triticum aestivum); conditions: for plant injury at 31 g/ha / plant injury at 62 g/ha: Triticum aestivum, read-out: Plant response rating, Wheat; for plant injury at 31 g/ha: 31 g ai/ha; for plant injury at 62 g/ha: 62 g ai/ha, 100 complete control
Outline: as §1

[5] = test system: cocklebur (Xanthium strumarium); conditions: for pest or weed control at 31 g/ha: 31 g ai/ha; for pest or weed control at 62 g/ha: 62 g ai/ha, 100 complete control
Outline: as §1

[6] = test system: blackgrass (Alopecurus myosuroides); conditions: for pest or weed control at 31 g/ha: 31 g ai/ha; for pest or weed control at 62 g/ha: 62 g ai/ha, 100 complete control
Outline: as §1

[7] = test system: lambsquarters (Chenopodium album); conditions: for pest or weed control at 31 g/ha / pest or weed control at 62 g/ha: Chenopodium album, read-out: Plant response rating, Lambsquarters; for pest or weed control at 31 g/ha: 31 g ai/ha; for pest or weed control at 62 g/ha: 62 g ai/ha, 100 complete control
Outline: as §1

[8] = 8 g ai/ha, postemergence, 0-100 scale
[9] = Preemergence, 8 g ai/ha, scale 0 to 100 (0 no effect, 100 complete control)
[10] = Preemergence, 16 g ai/ha, scale 0 to 100
[11] = 16 g ai/ha, postemergence, 0-100 scale
[12] = post-emergence, Postemergence, scale 0 to 100
[13] = post-emergence, Postemergence, scale 0 to 100, 0 no effect
[14] = pre-emergence, Preemergence, scale 0 to 100 (0 no effect, 100 complete control)
[15] = pre-emergence, Preemergence, 0 to 100 scale, 0 no effect

Cc1cc(-c2ccc(Br)cc2)nn1-c1c(OC(=O)C2CC2)cnn(C(=O)C2CC2)c1=O [Compound 80, 5-[3-(4-bromophenyl)-5-methyl-1H-pyrazol-1-yl]-1-(cyclopropylcarbonyl)-1,6-dihydro-6-oxo-4-pyridazinyl cyclopropanecarboxylate]
Crabgrass, Large plant response rating [1, 8]: 98
pest or weed control at 16 g/ha ([1]; Digitaria sanguinalis, post-emergence, Postemergence, 16 g ai/ha, scale 0 to 100, read-out: Plant response rating, Crabgrass, Large): 100%
pest or weed control at 31 g/ha ([1]; Digitaria sanguinalis, post-emergence, Postemergence, scale 0 to 100, read-out: Plant response rating, Crabgrass, Large): 100%
pest or weed control at 62 g/ha ([1]; Digitaria sanguinalis, post-emergence, Postemergence, scale 0 to 100, 0 no effect, read-out: Plant response rating, Crabgrass, Large): 100%
pest or weed control at 31 g/ha ([1]; Digitaria sanguinalis, pre-emergence, Preemergence, scale 0 to 100 (0 no effect, 100 complete control), read-out: Plant response rating, Crabgrass, Large): 100%
pest or weed control at 62 g/ha ([1]; Digitaria sanguinalis, pre-emergence, Preemergence, 0 to 100 scale, 0 no effect, read-out: Plant response rating, Crabgrass, Large): 100%
Crabgrass, Large plant response rating [1, 9]: 0
Crabgrass, Large plant response rating [1, 10]: 98
Johnsongrass plant response rating [2, 8]: 75
Johnsongrass plant response rating [2, 11]: 90
Johnsongrass plant response rating [2, 9]: 60
Johnsongrass plant response rating [2, 10]: 65
pest or weed control at 31 g/ha [2, 12]: 95%
pest or weed control at 62 g/ha [2, 13]: 100%
pest or weed control at 31 g/ha [2, 14]: 80%
pest or weed control at 62 g/ha [2, 15]: 100%
pest or weed control at 31 g/ha ([3]; Helianthus annuus, pre-emergence, 31 g ai/ha, scale 0 to 100 (0 no effect, 100 complete control), read-out: Plant response rating, Sunflower): 0%
pest or weed control at 62 g/ha ([3]; Helianthus annuus, pre-emergence, 62 g ai/ha, 0 to 100 scale, 0 no effect, 100 complete control, read-out: Plant response rating, Sunflower): 0%
Sunflower plant response rating ([3]; 8 g ai/ha, scale 0 to 100 (0 no effect, 100 complete control)): 0
Sunflower plant response rating ([3]; 16 g ai/ha, scale 0 to 100): 0
Wheat plant response rating [4, 8]: 35
Wheat plant response rating [4, 11]: 85
Wheat plant response rating [4, 9]: 0
Wheat plant response rating [4, 10]: 20
plant injury at 31 g/ha [4, 12]: 95%
plant injury at 62 g/ha [4, 13]: 98%
plant injury at 31 g/ha [4, 14]: 60%
plant injury at 62 g/ha [4, 15]: 95%
Cocklebur plant response rating [5, 8]: 0
Cocklebur plant response rating [5, 9]: 0
Cocklebur plant response rating [5, 10]: 0
pest or weed control at 16 g/ha ([5]; Xanthium strumarium, post-emergence, Postemergence, 16 g ai/ha, scale 0 to 100, read-out: Plant response rating, Cocklebur): 0%
pest or weed control at 31 g/ha ([5]; Xanthium strumarium, post-emergence, Postemergence, scale 0 to 100, read-out: Plant response rating, Cocklebur): 0%
pest or weed control at 62 g/ha ([5]; Xanthium strumarium, post-emergence, Postemergence, scale 0 to 100, 0 no effect, read-out: Plant response rating, Cocklebur): 0%
pest or weed control at 31 g/ha ([5]; Xanthium strumarium, pre-emergence, Preemergence, scale 0 to 100 (0 no effect, 100 complete control), read-out: Plant response rating, Cocklebur): 0%
pest or weed control at 62 g/ha ([5]; Xanthium strumarium, pre-emergence, Preemergence, 0 to 100 scale, 0 no effect, read-out: Plant response rating, Cocklebur): 0%
Blackgrass plant response rating [6, 8]: 80
pest or weed control at 16 g/ha ([6]; Alopecurus myosuroides, post-emergence, Postemergence, 16 g ai/ha, scale 0 to 100, read-out: Plant response rating, Blackgrass): 85%
pest or weed control at 31 g/ha ([6]; Alopecurus myosuroides, post-emergence, Postemergence, scale 0 to 100, read-out: Plant response rating, Blackgrass): 95%
pest or weed control at 62 g/ha ([6]; Alopecurus myosuroides, post-emergence, Postemergence, scale 0 to 100, 0 no effect, read-out: Plant response rating, Blackgrass): 100%
pest or weed control at 31 g/ha ([6]; Alopecurus myosuroides, pre-emergence, Preemergence, scale 0 to 100 (0 no effect, 100 complete control), read-out: Plant response rating, Blackgrass): 100%
pest or weed control at 62 g/ha ([6]; Alopecurus myosuroides, pre-emergence, Preemergence, 0 to 100 scale, 0 no effect, read-out: Plant response rating, Blackgrass): 100%
Blackgrass plant response rating [6, 9]: 70
Blackgrass plant response rating [6, 10]: 70
Lambsquarters plant response rating [7, 8]: 0
Lambsquarters plant response rating [7, 11]: 0
pest or weed control at 31 g/ha [7, 12]: 0%
pest or weed control at 62 g/ha [7, 13]: 0%
pest or weed control at 31 g/ha [7, 14]: 0%
pest or weed control at 62 g/ha [7, 15]: 0%
Lambsquarters plant response rating [7, 9]: 0
Lambsquarters plant response rating [7, 10]: 0
